One assay concerns the target T1, Activin receptor type-1B (Homo sapiens, UniProt P36896).
T1 sequence (P36896 whole entry): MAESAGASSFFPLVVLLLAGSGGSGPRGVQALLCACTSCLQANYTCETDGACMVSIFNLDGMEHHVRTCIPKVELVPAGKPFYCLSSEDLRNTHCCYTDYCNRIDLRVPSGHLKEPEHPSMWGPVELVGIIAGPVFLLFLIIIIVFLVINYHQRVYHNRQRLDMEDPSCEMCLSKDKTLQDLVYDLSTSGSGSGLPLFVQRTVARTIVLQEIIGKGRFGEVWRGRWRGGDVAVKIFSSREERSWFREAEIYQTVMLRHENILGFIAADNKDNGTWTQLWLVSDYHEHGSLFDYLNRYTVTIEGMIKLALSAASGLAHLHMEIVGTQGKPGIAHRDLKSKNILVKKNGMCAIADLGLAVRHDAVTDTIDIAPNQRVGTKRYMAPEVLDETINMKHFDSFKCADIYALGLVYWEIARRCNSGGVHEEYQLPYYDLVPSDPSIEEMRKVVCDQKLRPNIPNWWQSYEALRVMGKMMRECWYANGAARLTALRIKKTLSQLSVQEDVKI

Assay [1] deals with T2, Serine/threonine-protein kinase TAO1 (Homo sapiens, UniProt Q7L7X3).
T2 sequence (Q7L7X3 whole entry): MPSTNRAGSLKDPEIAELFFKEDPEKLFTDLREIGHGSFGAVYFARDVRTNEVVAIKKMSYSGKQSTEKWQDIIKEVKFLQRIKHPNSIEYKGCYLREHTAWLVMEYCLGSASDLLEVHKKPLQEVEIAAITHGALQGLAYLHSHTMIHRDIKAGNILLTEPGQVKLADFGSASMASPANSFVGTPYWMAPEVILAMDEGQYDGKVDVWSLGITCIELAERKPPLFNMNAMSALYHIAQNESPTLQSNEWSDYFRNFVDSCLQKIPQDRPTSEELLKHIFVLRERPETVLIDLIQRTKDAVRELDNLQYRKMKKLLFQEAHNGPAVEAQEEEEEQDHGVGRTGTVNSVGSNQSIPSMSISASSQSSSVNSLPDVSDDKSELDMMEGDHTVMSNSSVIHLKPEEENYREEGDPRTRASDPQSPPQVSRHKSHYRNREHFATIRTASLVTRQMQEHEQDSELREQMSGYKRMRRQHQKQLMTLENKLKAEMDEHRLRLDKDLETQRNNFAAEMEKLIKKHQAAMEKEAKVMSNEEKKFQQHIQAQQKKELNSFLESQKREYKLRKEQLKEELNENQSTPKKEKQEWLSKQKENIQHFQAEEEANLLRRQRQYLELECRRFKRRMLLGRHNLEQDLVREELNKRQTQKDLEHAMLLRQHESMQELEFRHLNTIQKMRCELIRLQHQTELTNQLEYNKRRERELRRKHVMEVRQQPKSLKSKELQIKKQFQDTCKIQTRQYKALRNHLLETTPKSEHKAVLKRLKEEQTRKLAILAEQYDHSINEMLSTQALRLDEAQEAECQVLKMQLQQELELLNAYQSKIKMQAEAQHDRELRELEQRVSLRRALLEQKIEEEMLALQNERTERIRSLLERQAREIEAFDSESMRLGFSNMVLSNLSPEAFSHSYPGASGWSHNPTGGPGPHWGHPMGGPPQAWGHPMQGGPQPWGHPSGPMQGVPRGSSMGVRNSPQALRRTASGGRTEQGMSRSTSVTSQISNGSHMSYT

Assay [2] deals with T3, Ferrochelatase, mitochondrial (Homo sapiens, UniProt P22830).
T3 sequence (P22830 whole entry): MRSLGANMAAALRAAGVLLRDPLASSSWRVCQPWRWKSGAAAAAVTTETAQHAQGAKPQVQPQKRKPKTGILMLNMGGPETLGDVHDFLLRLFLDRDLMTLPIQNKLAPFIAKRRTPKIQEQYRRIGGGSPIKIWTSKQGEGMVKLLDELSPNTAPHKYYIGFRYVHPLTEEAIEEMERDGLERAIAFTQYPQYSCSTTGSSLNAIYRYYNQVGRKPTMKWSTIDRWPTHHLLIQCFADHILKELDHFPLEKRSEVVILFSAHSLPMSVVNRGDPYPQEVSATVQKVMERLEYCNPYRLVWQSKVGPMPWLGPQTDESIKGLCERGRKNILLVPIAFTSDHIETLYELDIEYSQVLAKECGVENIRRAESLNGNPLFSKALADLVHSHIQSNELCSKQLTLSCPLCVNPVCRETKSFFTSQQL

As usually defined, the Kd is the concentration at which binding is half-saturated.

Structures are written as SMILES. The source made the active and inactive calls. Rule as the data show it: actives have a measured Kd and inactives only a lower limit. A value given as a limit tells only on which side of the number the result lay.
Also: in the data inactive means no Kd found up to 30 µM.

Consider `C[C@@H](NC(=O)c1ncnc(N)c1Cl)c1ncc(C(=O)Nc2cc(C(F)(F)F)c(Cl)cn2)s1` [TOVORAFENIB], for which the Kd (on Activin receptor type-1B; in assay [1]; in assay [2]) was > 30 µM (inactive) each time.

For `Cc1cc(Nc2ncnc3ccc(NC4=NC(C)(C)CO4)cc23)ccc1Oc1ccn2ncnc2c1` [TUCATINIB], the Kd at Activin receptor type-1B was > 30 µM (inactive); in assay [1], > 30 µM (inactive); in assay [2], 3.91 µM (active).

For the compound `Cn1ncc(Cl)c1-c1cc(C(=O)N[C@H](CN)Cc2ccc(F)c(F)c2)oc1Cl` [UPROSERTIB], the Kd (on Activin receptor type-1B; in assay [1]; in assay [2]) was > 30 µM (inactive) throughout.

For the compound `CC(C)c1cc(CNc2nc(Nc3cc(C4CC4)[nH]n3)cc(N3CCN(C)CC3)n2)on1` [XL-228], the Kd (on Activin receptor type-1B; in assay [1]; in assay [2]) was > 30 µM (inactive) each time.

Consider `C[C@@H](N)c1ccc(C(=O)Nc2ccnc3[nH]ccc23)cc1` [Y-39983], for which the Kd on Activin receptor type-1B was > 30 µM (inactive); in assay [1], 2.03 µM (active); in assay [2], > 30 µM (inactive).

For `CN1C/C=C/CCOc2cccc(c2)-c2ccnc(n2)Nc2cccc(c2)C1` [ZOTIRACICLIB], the Kd on Activin receptor type-1B was > 30 µM (inactive); in assay [1], 2.14 µM; in assay [2], 0.243 µM.

These data come from ChEMBL document CHEMBL3991601, “The target landscape of clinical kinase drugs” (Science, 2017).
